Source: US5389644A, “1,4-dihydropyridine compounds” (priority 1992, dated 1995)

Columns and labels:
[1] = test system: KB-A1; assay: Cytotoxicity: reversal of resistance to adriamycin (reversion factor), line KB-A1; assay type: cell-based, Human
Procedure: (§1) The parameter measured is the cytotoxicity of the antitumour drug, quantified in the absence and in the presence of the reversing compound. […] The compounds tested for their capacity to reverse the resistance are added at the same time as the cytotoxic agent. The cells are then incubated for 4 days.

[2] = test system: DC-3F/AD; assay: Cytotoxicity: reversal of resistance to actinomycin D (reversion factor), line DC-3F/AD; assay type: cell-based, Chinese hamster
Procedure: as §1, with “compound. Two resistant cell lines were used: 1 Chinese hamster lung line, DC-3F/AD, the resistance of which was induced by actinomycin D.” for “compound.”

[3] = molecular target: T1, calcium channel (Sus scrofa, UniProt A0A8W4FNC0); assay: Affinity for the calcium channel labelled with [^3 ] PN 200110, aorta smooth muscle microsome preparations; assay type: binding; settings: pig aorta smooth muscle microsomes; means of three independent experiments
T1 construct: pig aorta smooth muscle microsome preparations; from tissue; host or cells: pig aorta smooth muscle microsomes
Text: The results are expressed as IC50 (M) and represent means of three independent experiments.

[4] = test system: P 388/VCR; assay: In vivo increase in antitumour activity of vincristine, resistant line P 388/VCR; set-up: species or system murine leukaemia in female B6D2F1 mice
Text: This study was completed by an in vivo study, using a murine leukaemia resistant to vincristine (P 388/VCR) and using the compounds of the present invention in association with vincristine.
(§2) The sensitive parent line P 388 (murine leukaemia) and the sub-line resistant to vincristine, P 388/VCR, were supplied by NCI (Frederick, USA). The tumour cells (10^6 cells) were inoculated on day 0 into the indraperitoneal cavity of female B6D2F1 mice (Iffa Credo, France) weighing from 18 to 20 g (groups of 8 to 10 animals).
Every day for 4 days, starting from day 1, the animals received:
an administration of 25 to 150 mg/kg by i.p., p.o. or i.v. route of the compound of the present invention to be tested, as mentioned in the table 4a; then
(§3) 30 to 60 minutes later, an administration by the i.p. route of 0.25 mg/kg of vincristine (used as a reference antitumour agent).
(§4) The antitumour activity is expressed as follows: [formula]
(§5) The values are mean values obtained in independent experiments (# sem when n is greater than or equal to 3).

[5] = test system: KB-A1; assay: Flow cytometry: intracellular accumulation of ADR, line KB-A1; assay type: cell-based, Human; settings: ADR 50 μM, 5 hours
Procedure: Also measured was the effect of the compounds on the intracellular concentration of adriamycin. […] By measuring that fluorescence, it is thus possible to obtain a relative measurement of the intracellular concentration of ADR. […] The cells (5×10^5 per ml) were exposed simultaneously to ADR at a fixed concentration (50 μM) and to the tested compounds at various concentrations. After 5 hours' incubation, the intracellular accumulation of ADR was evaluated by FCM. […] The results were presented in the form of linear histograms of the intracellular ADR fluorescence. Expression of the results: for each of the histograms the mean fluorescence per channel (MEAN) was determined by the computer of the apparatus. For all experiments: a negative control (cells without ADR) fixed the autofluorescence threshold. a positive control (cells with ADR) determined the MEAN value=MN1. the "test" tubes (cells with ADR and with compound) were used to determine, for each of the compounds and at each of the concentrations, the MEAN values=MN2. The results are expressed in the form of variations from the mean fluorescence obtained for each of the "test" tubes (MN2) in relation to the mean fluorescence obtained with the positive control (MN1): VAR-MEAN=MN2-MN1. The measured parameter is thus the increase in ADR fluorescence in the presence of the tested compounds.

[6] = test system: P 388; assay: In vivo increase in antitumour activity of vincristine, sensitive line P388; set-up: species or system murine leukaemia in female B6D2F1 mice
Procedure: as §2
Every day for 4 days, starting from day 1, the animals received: […]
as §3, §4, §5
Using the sensitive line (P388) the tested compounds of the invention increase considerably the sensitivity of the cells to vincristine.

[7] = with VCR […] i.p., compound 50 mg/kg i.p.
[8] = with VCR […] i.p., compound 150 mg/kg p.o.
[9] = VCR 0, compound 12.5 mg/kg p.o.
[10] = with VCR […] i.p., compound 12.5 mg/kg p.o.

T1 sequence (A0A8W4FNC0 1-2067): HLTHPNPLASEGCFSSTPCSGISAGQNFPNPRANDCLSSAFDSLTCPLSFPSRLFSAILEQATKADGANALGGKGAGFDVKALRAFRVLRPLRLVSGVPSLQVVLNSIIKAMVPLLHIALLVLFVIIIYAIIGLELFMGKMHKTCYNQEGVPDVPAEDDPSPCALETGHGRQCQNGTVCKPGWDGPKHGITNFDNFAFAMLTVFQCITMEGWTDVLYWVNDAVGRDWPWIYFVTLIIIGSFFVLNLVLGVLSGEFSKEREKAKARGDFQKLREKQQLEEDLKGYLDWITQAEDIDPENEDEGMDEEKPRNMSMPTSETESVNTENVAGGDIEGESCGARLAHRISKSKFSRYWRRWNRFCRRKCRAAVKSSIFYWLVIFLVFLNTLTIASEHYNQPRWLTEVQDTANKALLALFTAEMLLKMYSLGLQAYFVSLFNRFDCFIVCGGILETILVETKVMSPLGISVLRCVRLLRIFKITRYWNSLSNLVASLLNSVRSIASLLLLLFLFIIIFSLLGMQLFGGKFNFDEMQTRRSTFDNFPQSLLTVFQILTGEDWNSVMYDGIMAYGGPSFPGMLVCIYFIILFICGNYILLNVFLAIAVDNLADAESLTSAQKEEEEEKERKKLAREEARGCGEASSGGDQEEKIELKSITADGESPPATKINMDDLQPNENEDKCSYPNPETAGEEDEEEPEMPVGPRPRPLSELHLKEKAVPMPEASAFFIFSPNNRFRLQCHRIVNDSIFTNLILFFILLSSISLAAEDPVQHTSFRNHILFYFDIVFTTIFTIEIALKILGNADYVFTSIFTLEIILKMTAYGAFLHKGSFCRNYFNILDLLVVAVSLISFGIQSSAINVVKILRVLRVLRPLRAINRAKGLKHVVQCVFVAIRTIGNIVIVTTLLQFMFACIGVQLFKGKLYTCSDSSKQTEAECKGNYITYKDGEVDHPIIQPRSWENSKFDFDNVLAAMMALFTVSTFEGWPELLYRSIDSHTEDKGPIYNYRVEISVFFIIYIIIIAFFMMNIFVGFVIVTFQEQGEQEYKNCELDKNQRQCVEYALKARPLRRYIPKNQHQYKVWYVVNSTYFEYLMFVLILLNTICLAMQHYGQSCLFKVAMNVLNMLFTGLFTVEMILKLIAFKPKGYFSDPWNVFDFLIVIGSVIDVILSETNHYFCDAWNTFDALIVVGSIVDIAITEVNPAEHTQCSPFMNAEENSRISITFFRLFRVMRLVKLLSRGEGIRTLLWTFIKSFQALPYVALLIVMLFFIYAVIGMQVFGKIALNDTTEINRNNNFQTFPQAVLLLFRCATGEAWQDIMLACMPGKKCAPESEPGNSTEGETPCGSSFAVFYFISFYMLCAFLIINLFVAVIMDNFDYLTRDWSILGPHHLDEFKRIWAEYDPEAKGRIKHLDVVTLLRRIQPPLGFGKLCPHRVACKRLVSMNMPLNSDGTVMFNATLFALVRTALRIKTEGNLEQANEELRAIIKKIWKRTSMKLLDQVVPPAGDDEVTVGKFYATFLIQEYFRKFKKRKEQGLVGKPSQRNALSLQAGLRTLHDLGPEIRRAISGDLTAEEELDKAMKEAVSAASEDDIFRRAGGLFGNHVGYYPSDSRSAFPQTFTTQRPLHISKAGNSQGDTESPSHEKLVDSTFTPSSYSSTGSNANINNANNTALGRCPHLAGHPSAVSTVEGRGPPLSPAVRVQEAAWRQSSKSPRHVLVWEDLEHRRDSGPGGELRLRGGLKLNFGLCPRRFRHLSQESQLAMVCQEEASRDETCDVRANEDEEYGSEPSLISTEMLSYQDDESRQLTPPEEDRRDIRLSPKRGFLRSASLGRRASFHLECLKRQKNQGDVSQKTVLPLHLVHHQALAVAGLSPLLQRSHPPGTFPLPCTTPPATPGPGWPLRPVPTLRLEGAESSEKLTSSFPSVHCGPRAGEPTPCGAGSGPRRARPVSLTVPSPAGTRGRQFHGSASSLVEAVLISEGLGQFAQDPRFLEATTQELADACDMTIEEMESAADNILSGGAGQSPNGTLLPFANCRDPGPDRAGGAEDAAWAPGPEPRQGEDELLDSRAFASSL

Row | SMILES | reversion factor (RF) ([1]; compound 1 μM) | reversion factor (RF) ([1]; compound 5 μM) | reversion factor (RF) ([2]; compound 1 μM) | reversion factor (RF) ([2]; compound 5 μM) | increase in the ADR fluorescence (VAR-MEAN) ([5]; compound 1 μM) | increase in the ADR fluorescence (VAR-MEAN) ([5]; compound 5 μM) | increase in the ADR fluorescence (VAR-MEAN) ([5]; compound […]) | other results
1 | CCOC(=O)C1=C(COCCOCCNCc2cccc(F)c2)NC(C)=C(C(=O)OC)C1c1cccc(Cl)c1Cl (stereo not drawn) [Example 5, d-2-{[2-(2-(N-m-fluorobenzylamino)ethoxy)ethoxy]methyl}-4-(2,3-dichlorophenyl)-3-ethoxycarbonyl-5-methoxycarbonyl-6-methyl-1,4-dihydropyridine] | 13.2 | 225.8 | 7.6 | 3,567.0 | – | – | – | –
2 | CCOC(=O)C1=C(COCCOCCNCc2c[nH]c3ccccc23)NC(C)=C(C(=O)OC)C1c1cccc(Cl)c1Cl (stereo not drawn) [Example 22, d-2-{[2-(2-[N-(indol-3-yl)methylamino]ethoxy)ethoxy]methyl}-4-(2,3-dichlorophenyl)-3-ethoxycarbonyl-5-methoxycarbonyl-6-methyl-1,4-dihydropyridine] | – | – | – | – | – | – | – | IC50 [3]: 3300 nM
3 | CCOC(=O)C1=C(COCCOCCNCc2cccc3ccccc23)NC(C)=C(C(=O)OC)C1c1cccc(Cl)c1Cl (stereo not drawn) [Example 11, d-2-{[2-(2-(N-naphth-1-ylmethylamino)ethoxy)ethoxy]methyl}-4-(2,3-dichlorophenyl)-3-ethoxycarbonyl-5-methoxycarbonyl-6-methyl-1,4-dihydropyridine] | 1.7 | 336.0 | 1.0 | 2,442.4 | 0.2 | 31.0 | 18.2 | T/C ([4]; VCR 0, compound 50 mg/kg i.p.): 100%; T/C ([4]; VCR 0, compound 150 mg/kg p.o.): 99%; T/C [4, 7]: 146%; T/C [4, 8]: 177%
4 | CCOC(=O)C1=C(COCCOCCNCc2ccc(F)cc2)NC(C)=C(C(=O)OC)C1c1cccc(Cl)c1Cl (stereo not drawn) [Example 4, d-2-{[2-(2-(N-p-fluorobenzylamino)ethoxy)ethoxy]methyl}-4-(2,3-dichlorophenyl)-3-ethoxycarbonyl-5-methoxycarbonyl-6-methyl-1,4-dihydropyridine] | 26.0 | 473.7 | 23.0 | 3,962.3 | 2.0 | 18.6 | 7.0 | T/C ([4]; VCR 0, compound 50 mg/kg i.p.): 100%; T/C ([4]; VCR 0, compound 150 mg/kg p.o.): 110%; T/C [4, 7]: 176%; T/C [4, 8]: 181%
5 | CCOC(=O)C1=C(COCCOCCNCCc2ccccn2)NC(C)=C(C(=O)OC)C1c1cccc(Cl)c1Cl (single isomer, unassigned) [Example 20, d-2-{2-[[2-(2-(N-pyrid-2-yl)ethylamino)ethoxy]ethoxy]methyl}-4-(2,3-dichlorophenyl)-3-ethoxycarbonyl-5-methoxycarbonyl-6-methyl-1,4-dihydropyridine] | – | – | – | – | – | – | – | IC50 [3]: 2100 nM
6 | CCOC(=O)C1=C(COCCOCCNC2c3ccccc3CCc3ccccc32)NC(C)=C(C(=O)OC)C1c1cccc(Cl)c1Cl (stereo not drawn) [Example 28, d-2-{[2-(2-[N-dibenzo[a,d]cyclohept-5-ylamino)ethoxy)ethoxy]methyl}-4-(2,3-dichlorophenyl)-3-ethoxycarbonyl-5-methoxycarbonyl-6-methyl-1,4-dihydropyridine] | – | – | 1.4 | 447.3 | – | – | – | T/C ([4]; VCR 0, compound 50 mg/kg i.p.): 107%; T/C ([4]; VCR 0, compound 150 mg/kg p.o.): 99%; T/C [4, 7]: 180%; T/C [4, 8]: 207%
7 | CCOC(=O)C1=C(COCCOCCNCc2ccc(SC)cc2)NC(C)=C(C(=O)OC)C1c1cccc(Cl)c1Cl (stereo not drawn) [Example 9, d-2-{[2-(2-(N-p-methylthiobenzylamino)ethoxy)ethoxy]methyl}-4-(2,3-dichlorophenyl)-3-ethoxycarbonyl-5-methoxycarbonyl-6-methyl-1,4-dihydropyridine] | 2.4 | 99.0 | 1.2 | 560.3 | – | – | – | –
8 | CCOC(=O)C1=C(COCCOCCNCc2cccc([N+](=O)[O-])c2)NC(C)=C(C(=O)OC)C1c1cccc(Cl)c1Cl (stereo not drawn) [Example 2, d-2-{[2-(2-(N-m-nitrobenzylamino)ethoxy)ethoxy]methyl}-4-(2,3-dichlorophenyl)-3-ethoxycarbonyl-5-methoxycarbonyl-6-methyl-1,4-dihydropyridine] | 2.2 | 389.5 | 1.5 | 1,478.2 | – | – | – | –
9 | CCOC(=O)C1=C(COCCOCCNCc2cccs2)NC(C)=C(C(=O)OC)C1c1cccc(Cl)c1Cl (stereo not drawn) [Example 13, d-2-{[2-(2-(N-thien-2-ylmethylamino)ethoxy)ethoxy]methyl)-4-(2,3-dichlorophenyl)-3-ethoxycarbonyl-5-methoxycarbonyl-6-methyl-1,4-dihydropyridine] | 12.3 | 165.1 | 19.4 | 4,141.7 | – | – | – | –
10 | COC(=O)C1=C(C)NC(C)=C(C(=O)OC)C1c1ccccc1[N+](=O)[O-] [NIFEDIPINE, nifedipine, reference compound] | – | – | – | – | 0.0 | 0.0 | 0.0 | –
11 | CCOC(=O)C1=C(COCCOCCNCc2ccccc2F)NC(C)=C(C(=O)OC)C1c1cccc(Cl)c1Cl (stereo not drawn) [Example 6, d-2-{[2-(2-(N-o-fluorobenzylamino)ethoxy)ethoxy]methyl}-4-(2,3-dichlorophenyl)-3-ethoxycarbonyl-5-methoxycarbonyl-6-methyl-1,4-dihydropyridine] | 15.2 | 159.1 | 9.6 | 4,340.9 | – | – | – | –
12 | CCOC(=O)C1=C(COCCOCCNCc2ccncc2)NC(C)=C(C(=O)OC)C1c1cccc(Cl)c1Cl (stereo not drawn) [Example 15, d-2-{[2-(2-(N-pyrid-4-ylmethylamino)ethoxy)ethoxy]methyl}-4-(2,3-dichlorophenyl)-3-ethoxycarbonyl-5-methoxycarbonyl-6-methyl-1,4-dihydropyridine] | 12.1 | 281.9 | 301.4 | 6,510.3 | 7.0 | 38.6 | 16.1 | T/C ([4]; VCR 0, compound 25 mg/kg i.p.): 109%; T/C ([4]; VCR 0, compound 25 mg/kg i.v.): 94%; T/C ([4]; VCR 0, compound 25 mg/kg p.o.): 112%; T/C ([4]; with VCR […] i.p., compound 25 mg/kg i.p.): 262%; T/C ([4]; with VCR […] i.p., compound 25 mg/kg i.v.): 186%; T/C ([4]; with VCR […] i.p., compound 25 mg/kg p.o.): 180%; Survivors on day 60 [6, 9]: 0/8; T/C [6, 9]: 101%; Survivors on day 60 [6, 10]: 3/8; T/C [6, 10]: 540%
13 | CCOC(=O)C1=C(COCCOCCNCc2ccc(C#N)cc2)NC(C)=C(C(=O)OC)C1c1cccc(Cl)c1Cl (stereo not drawn) [Example 8, d-2-{[2-(2-(N-p-cyanobenzylamino)ethoxy)ethoxy]methyl}-4(2,3-dichlorophenyl)-3-ethoxycarbonyl-5-methoxycarbonyl-6-methyl-1,4-dihydropyridine] | 6.9 | 136.0 | 11.4 | 1,319.9 | 2.0 | 24.2 | 9.4 | Survivors on day 60 ([6]; VCR 0, compound 150 mg/kg p.o.): 0/8; T/C ([6]; VCR 0, compound 150 mg/kg p.o.): 106%; Survivors on day 60 [6, 8]: 2/8; T/C [6, 8]: 294%
